Reference: patent US4770870A, “Method for reducing pain associated with the administration of 4-sulfido-oxazaphosphorines and 4-sulfoalkylthio-oxazaphorphorines” (Asta Pharma Aktiengesellschaft, priority 1981, dated 1988)
Where a name gives a salt, the structure may show the parent alone. Read-outs that look alike come from different tables or passages of the source.

Key:
Human mammary-carcinoma = Human mammary-carcinoma heterotransplanted to nu/nu mice; type: in vivo, human tumor in mouse (nu/nu); conditions: cyclophosphamide single injection of 100 mg/kg
Description: (The experimental procedure was carried out as follows according to: C. O. Polvsen, G. K. Jacobsen, J. Rygaard, The Laboratory Animal in Drug Testing, Editor A. Spiegel, pages 63-73, Fischer-Verlag, Stuttgart, (1973).
(a) Human mammary-carcinoma from operation material of a women's clinic were heterotransplanted to thymusaplastic nu/ny mice. After the 23-25th passage in each case by implantation of a thin tumor section having a diameter of 8-10 mm into the milk ducts after growth of the implants to 0.15-0.25 grams the animals were subjected to therapy and the curative effect determined through measuring the tumor surface.

[1] = Acute toxicity (LD50), single intravenous dose, species not stated; conditions: in vivo
[2] = Subchronic toxicity, NMRI-mouse; conditions: same pattern without cysteine, total dosage 3 mmol/kg
[3] = mouse, in vivo

Cl [HCl pH 4, hydrochloric acid]
Reaction (+ = reaction, - = no reaction) (rat, in vivo): -
reaction (rat, in vivo): Neither

O=S(=O)([O-])CCS.[Na+]
prevention of pain induced by mafosfamide lysine salt (rat, in vivo): completely prevented the pain-inducing effect of mafosfamide lysine salt

CC(=O)N[C@@H](CS)C(=O)O [NAC, N-acetyl-cysteine]
prevention of pain induced by mafosfamide lysine salt (5 molar mesna or NAC solution): completely prevented the pain-inducing effect of mafosfamide lysine salt

O=P1(N(CCCl)CCCl)NCCCO1 (centres unmarked) [cyclophosphamide]
tumor growth (Human mammary-carcinoma): checking of the tumor growth
LD50 [1]: 244 mg/kg
Approximate threshold concentration inducing venous pain (Table 1, sleeping rat): 30 mg/mL
concentration at which no reaction was induced (sleeping rat): below 30 mg/ml
Reaction (+ = reaction, - = no reaction) (sleeping rat, tail vein infusion): +
deaths of mice [2]: 6 mice

O=P1(N(CCCl)CCCl)NC(SCC(S)CS(=O)(=O)O)CCO1 (centres unmarked) [cyclohexylamine salt, 3-[2-(bis-(2-chloroethyl)-amine-2-oxo-tetrahydro-2H-1,3,2-oxazaphosphorine-4-yl-thio]-2-mercaptopropanesulfonic acid-cyclohexylamine salt]
increase of the LD50 [3]: 2-3 fold

O=P1(NCCCl)OCCCN1CCCl (centres unmarked) [ifosfamide]
Approximate threshold concentration inducing venous pain (rat, in vivo): > 10 mg/mL
Reaction (+ = reaction, - = no reaction) (rat, in vivo): +
concentration at which no reaction was induced (rat, in vivo): below 10 mg/ml
